From patent publication US9969716B2, “Indole derivatives as modulators of methyl modifying enzymes, compositions and uses thereof” (Constellation Pharmaceuticals, Inc., priority 2013, dated 2018)
Read-outs that look alike come from different tables or passages of the source.

How the values were obtained:
EZH2 = EZH2 (Homo sapiens, UniProt Q15910); test: EZH2 assay (rPRC2, 3H SAM methyl transfer to biotinylated oligonucleosomes, FlashPlate); format: biochemical
Description: EZH2 Assay: Assays were carried out by mixing rPRC2 together with biotinylated oligonucleosome substrates in the presence of the radio-labeled enzyme co-factor, S-adenosyl-L-methionine (^3H SAM) (Perkin Elmer) and monitoring the enzymatically mediated transfer of tritiated methyl groups from ^3H SAM to histone lysine residues. The amount of resulting tritiated methyl histone product was measured by first capturing the biotinylated oligonucleosomes in streptavidin (SAV) coated FlashPlates (Perkin Elmer), followed by a wash step to remove un-reacted ^3H SAM, and then counting on a TopCount NXT 384 well plate scintillation counter (Perkin Elmer). The final assay conditions for EZH2 were as follows: 50 mM Tris Buffer pH 8.5, 1 mM DTT, 69 μM Brij-35 detergent, 5.0 mM MgCl2, 0.1 mg/mL BSA, 0.2 μM ^3H SAM, 0.2 μM biotinylated oligonucleosomes, 3.6 μM H3K27me3 peptide and 2 nM EZH2.
A 12.5 μL volume of the HMT enzyme, H3K27me3 peptide and oligonucleosome substrate in assay buffer was added to each well of the assay plate using a Multidrop Combi (ThermoFisher). Compounds were pre-incubated with the enzyme for 20 min, followed by initiation of the methyltransferase reaction by addition of 12.5 μL of ^3H SAM in assay buffer (final volume=25 μL). The final concentrations of compounds ranged from a top default concentration of 80 μM down to 0.16 μM in ten 2-fold dilution steps. Reactions were carried out for 60 minutes and quenched with 20 μL per well of 1.96 mM SAH, 50 mM Tris pH 8.5, 200 mM EDTA. Stopped reactions were transferred to SAV coated Flashplates (Perkin Elmer), incubated for 120 min, washed with a plate washer, and then read on the TopCount NXT (1.0 min/well) to measure the amount of methyl histone product formed during the reaction.

[1] = test system: H3K27me3 mark in HeLa cells; test: H3K27me3 Alpha Hela Assay (AlphaLISA); format: cell-based; conditions: Homo sapiens, 72 hrs, read-out: EZH2_Cell_H3K27me3_Alpha_HeLa (EC50_K27me3)
Description: Ten different doses of each test compound (in a series of 3-fold dilutions) were plated in duplicate 384-well tissue culture treated plates (Catalog #781080; Greiner Bio One; Monroe, N.C.). Hela cells grown in culture were trypsinized and counted using a Countess® cell counter (Catalog # C10281; Life Technologies, Grand Island, N.Y.). Cell were diluted to 67,000 cells per mL in 10% DMEM (Catalog #10569-010 Life Technologies, Grand Island, N.Y.) and 15 μL (1,000 cells) were plated into each well using the Biotek MicroFlo™ Select Dispenser (BioTek Instruments, Inc. Vermont, USA),) of the 384-well plate. Plates were incubated at 37° C./5% CO2 for 72 hrs. One of the duplicate plates was processed for HeLa assay and the other for viability.
To the plate processed for AlphaLISA was added 5 μL per well Cell-Histone Lysis buffer (1λ) (Catalog # AL009F1 Perkin Elmer; Waltham, Mass.) and the plate was incubated at RT for 30 minutes on a plate shaker with low speed (Model#4625-Q Thermo Scientific; Waltham, Mass.). Then, 10 μL per well Histone Extraction buffer (catalog # AL009F2; Perkin Elmer; Waltham, Mass.) was added and the plate further incubated at RT for 20 min on plate shaker with low speed. To each well was then added 10 μL per well of a 5× mix of anti-K27me3 acceptor beads plus Biotinylated anti-Histone H3 (C-ter) Antibody (diluted to 3 nM final) (Catalog #AL118 Perkin Elmer; Waltham, Mass.). Dilution of the acceptor beads and then anti-Histone H3 was with 1× Histone Detection buffer (Catalog # AL009F3 Perkin Elmer; Waltham, Mass.) which was produced diluted from the 10× stock provided. The plate was sealed with an aluminum plate sealer and incubated at 23° C. for 60 min. We then added 10 μL 5× solution of Streptavidin Donor beads (Catalog #6760002 Perkin Elmer; Waltham, Mass.) (20 μg/mL final in 1× Histone Detection Buffer), sealed the plate with Aluminum plate sealer and incubated at 23° C. for 30 min. The plates were then read using an EnVision-Alpha Reader (model #2104 Perkin Elmer; Waltham, Mass.).
Data from both assays was analyzed using Assay Assistant (Constellation Pharmaceuticals In-house product) and Activity Base (IDBS Ltd, Surrey, UK) template. Data files were imported to Assay Assistant and assay conditions were specified. A unique Analysis ID was created and the data files exported to Activity Base. An analysis template was created on Activity Base to measure dose-dependent inhibition of H3K27me3 mark and cell viability respectively. Readout of DMSO wells were used to normalize the data. Resulting curves were fitted using Activity base software Model 205 (IDBS Ltd, Surrey, UK). The data was checked for quality, validated and integrated in excel format using SARview (IDBS Ltd, Surrey, UK).

Sequence of EZH2 (Q15910 whole entry): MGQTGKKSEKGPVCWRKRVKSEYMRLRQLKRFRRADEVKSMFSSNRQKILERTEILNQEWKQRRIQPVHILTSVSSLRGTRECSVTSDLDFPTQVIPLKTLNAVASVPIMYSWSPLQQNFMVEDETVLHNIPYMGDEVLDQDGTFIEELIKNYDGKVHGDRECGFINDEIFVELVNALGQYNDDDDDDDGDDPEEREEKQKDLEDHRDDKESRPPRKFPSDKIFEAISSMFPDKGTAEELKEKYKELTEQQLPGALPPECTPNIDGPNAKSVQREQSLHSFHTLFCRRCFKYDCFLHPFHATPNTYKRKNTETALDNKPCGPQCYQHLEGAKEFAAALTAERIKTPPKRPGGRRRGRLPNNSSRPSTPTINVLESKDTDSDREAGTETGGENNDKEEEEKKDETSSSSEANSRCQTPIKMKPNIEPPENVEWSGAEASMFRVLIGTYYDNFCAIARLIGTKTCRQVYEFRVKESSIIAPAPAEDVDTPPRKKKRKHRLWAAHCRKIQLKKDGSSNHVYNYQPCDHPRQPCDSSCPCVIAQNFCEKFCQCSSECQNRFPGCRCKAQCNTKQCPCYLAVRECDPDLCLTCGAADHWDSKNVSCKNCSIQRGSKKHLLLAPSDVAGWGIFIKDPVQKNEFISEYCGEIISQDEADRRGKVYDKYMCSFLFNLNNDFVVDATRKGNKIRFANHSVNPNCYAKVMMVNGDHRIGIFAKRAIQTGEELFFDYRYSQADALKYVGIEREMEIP
Sequence of EZH2 (O75530 whole entry partner): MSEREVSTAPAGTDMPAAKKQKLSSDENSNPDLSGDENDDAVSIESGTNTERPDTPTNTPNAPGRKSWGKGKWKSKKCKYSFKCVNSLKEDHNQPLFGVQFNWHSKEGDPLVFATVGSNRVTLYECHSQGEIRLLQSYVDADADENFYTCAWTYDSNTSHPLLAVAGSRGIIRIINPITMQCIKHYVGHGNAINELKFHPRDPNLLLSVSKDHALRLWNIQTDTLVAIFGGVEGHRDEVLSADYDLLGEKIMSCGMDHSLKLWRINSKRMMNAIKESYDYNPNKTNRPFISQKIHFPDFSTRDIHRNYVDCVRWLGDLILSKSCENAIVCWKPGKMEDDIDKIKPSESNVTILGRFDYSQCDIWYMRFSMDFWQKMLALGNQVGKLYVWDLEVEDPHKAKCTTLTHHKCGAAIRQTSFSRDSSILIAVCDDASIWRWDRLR
Sequence of EZH2 (Q15022 whole entry partner): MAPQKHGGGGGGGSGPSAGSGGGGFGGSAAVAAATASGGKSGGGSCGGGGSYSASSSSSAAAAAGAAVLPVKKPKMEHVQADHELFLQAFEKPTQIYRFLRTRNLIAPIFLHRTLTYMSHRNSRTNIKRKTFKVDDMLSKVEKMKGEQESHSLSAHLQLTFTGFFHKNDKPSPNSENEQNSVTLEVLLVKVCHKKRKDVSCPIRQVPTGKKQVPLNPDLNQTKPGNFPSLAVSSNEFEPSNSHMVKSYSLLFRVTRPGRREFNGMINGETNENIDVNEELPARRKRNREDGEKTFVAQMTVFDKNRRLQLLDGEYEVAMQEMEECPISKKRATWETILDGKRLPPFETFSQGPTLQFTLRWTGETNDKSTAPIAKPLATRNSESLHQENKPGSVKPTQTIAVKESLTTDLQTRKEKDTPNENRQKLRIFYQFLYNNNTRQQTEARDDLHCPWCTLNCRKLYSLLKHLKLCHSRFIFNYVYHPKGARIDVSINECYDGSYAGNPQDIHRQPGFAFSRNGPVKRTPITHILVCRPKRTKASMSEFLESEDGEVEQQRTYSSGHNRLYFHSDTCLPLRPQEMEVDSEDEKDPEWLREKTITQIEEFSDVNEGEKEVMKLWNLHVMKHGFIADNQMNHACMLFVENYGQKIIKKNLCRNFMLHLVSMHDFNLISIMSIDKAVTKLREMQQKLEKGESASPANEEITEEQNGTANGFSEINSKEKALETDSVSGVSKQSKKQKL

SMILES | IC50 (EZH2) | EC50 [1] | IC50 (EZH2; 2 nM EZH2, 0.2 μM 3H SAM, 0.2 μM biotinylated oligonucleosomes, 3.6 μM H3K27me3 peptide, 60 min, read-out: EZH2_nuc_BSA_Brij_1.5 (IC50))
COc1cc(C)[nH]c(=O)c1CNC(=O)c1c(C)n([C@H](C)C2CCN(Cc3cncc(F)c3)CC2)c2ccccc12 [Compound 257] | < 100 nM | < 400 nM | 
COc1cc(C)[nH]c(=O)c1CNC(=O)c1c(C)n([C@H](C)C2CCN(Cc3ncccn3)CC2)c2ccccc12 [Compound 241] | < 100 nM | 400 to 2000 nM | 
COc1cc(C)[nH]c(=O)c1CNC(=O)c1c(C)n([C@H](C)C2CCN(C(=O)C3CCCC3)CC2)c2ccccc12 [Compound 235] | < 100 nM | 400 to 2000 nM | 
CC[C@H](C1CCN(CC(F)F)CC1)n1c(C)c(C(=O)NCc2c(OC)cc(C)[nH]c2=O)c2ccccc21 [Compound 219] | < 100 nM | < 400 nM | 
COc1cc(C)[nH]c(=O)c1CNC(=O)c1c(C)n([C@H](C)C2CCN(CC3(C(F)(F)F)CCC3)CC2)c2ccccc12 [Compound 135] |  | < 400 nM | 
COc1cc(C)[nH]c(=O)c1CNC(=O)c1c(C)n([C@H](C)C2CCN(C)CC2F)c2ccccc12 (stereo partly drawn) [Compound 221] | < 100 nM | < 400 nM | 
COc1cc(C)[nH]c(=O)c1CNC(=O)c1c(C)n([C@H](C)C2CCN(CC3(C)COC3)CC2)c2ccccc12 [Compound 220] | < 100 nM | < 400 nM | 
COc1cc(C)[nH]c(=O)c1CNC(=O)c1c(C)n([C@H](C)C2CCN(C(=O)c3ccc(C#N)cc3)CC2)c2ccccc12 [Compound 214] | < 100 nM | 400 to 2000 nM | 
COc1cc(C)[nH]c(=O)c1CNC(=O)c1c(C)n([C@H](C)C2CCN(C(=O)N3CCC(F)(F)C3)CC2)c2ccccc12 [Compound 248] | < 100 nM | 400 to 2000 nM | 
COCC(F)(F)C(=O)N1CCC([C@@H](C)n2c(C)c(C(=O)NCc3c(OC)cc(C)[nH]c3=O)c3ccccc32)CC1 [Compound 230] | < 100 nM | < 400 nM | 
COc1cc(C)[nH]c(=O)c1CNC(=O)c1c(C)n([C@H](C)C2CCN([S+]([O-])C(C)(C)C)CC2)c2ccccc12 (stereo partly drawn) [Compound 256] | < 100 nM | < 400 nM | 
COc1cc(C)[nH]c(=O)c1CNC(=O)c1c(C)n([C@H](C)C2CCN(C(=O)C3CCC3)CC2)c2ccccc12 [Compound 216] | < 100 nM | < 400 nM | 
COc1cc(C)[nH]c(=O)c1CNC(=O)c1c(C)n([C@H](C)C2CCN(C(=O)C3CCN(C)CC3)CC2)c2ccccc12 [Compound 243] | < 100 nM | > 2000 nM | 
COc1cc(C)[nH]c(=O)c1CNC(=O)c1c(C)n([C@H](C)C2CCN(C(C)(C)C(C)=O)CC2)c2ccccc12 [Compound 253] | < 100 nM | < 400 nM | 
COc1cc(C)[nH]c(=O)c1CNC(=O)c1c(C)n([C@H](C)C2CCN(CCC#N)CC2)c2ccccc12 [Compound 206] | < 100 nM | < 400 nM | 
CCC(C)(C)C(=O)N1CCC([C@@H](C)n2c(C)c(C(=O)NCc3c(OC)cc(C)[nH]c3=O)c3ccccc32)CC1 [Compound 233] | < 100 nM | < 400 nM | 
COc1cc(C)[nH]c(=O)c1CNC(=O)c1c(C)n([C@H](C)C2CCN(C(=O)C3CC(F)(F)C3)CC2)c2ccccc12 [Compound 228] | < 100 nM | 400 to 2000 nM | 
COc1cc(C)[nH]c(=O)c1CNC(=O)c1c(C)n([C@H](C)C2CCN(C(=O)C3CCC(C)CC3)CC2)c2ccccc12 (mixture of isomers) [Compound 234] | < 100 nM | < 400 nM | 
COc1cc(C)[nH]c(=O)c1CNC(=O)c1c(C)n([C@H](C)C2CCN(Cc3cnccc3C#N)CC2)c2ccccc12 [Compound 268] | < 100 nM | < 400 nM | 

SMILES | IC50 (EZH2) | EC50 [1] | IC50 (EZH2; 2 nM EZH2, 0.2 μM 3H SAM, 0.2 μM biotinylated oligonucleosomes, 3.6 μM H3K27me3 peptide, 60 min, read-out: EZH2_nuc_BSA_Brij_1.5 (IC50))
COc1cc(C)[nH]c(=O)c1CNC(=O)c1c(C)n([C@H](C)C2CCN(Cc3ccnc(C(F)(F)F)c3)CC2)c2ccccc12 [Compound 251] | < 100 nM | < 400 nM | 
COc1cc(C)[nH]c(=O)c1CNC(=O)c1c(C)n([C@H](C)C2CCN(C(=O)C(C)(C)C(F)(F)F)CC2)c2ccccc12 [Compound 114] | < 100 nM | < 400 nM | 
CCCc1cc(C)[nH]c(=O)c1CNC(=O)c1c(C)n([C@H](C)C2CCN(S(=O)(=O)CC)CC2)c2ccccc12 [Compound 132] |  | < 400 nM | 
CC(=O)N1CC(N2CCC([C@@H](C)n3c(C)c(C(=O)NCc4c(C)cc(C)[nH]c4=O)c4ccccc43)CC2)C1 [Compound 231] | < 100 nM | 400 to 2000 nM | 
COc1cc(C)[nH]c(=O)c1CNC(=O)c1c(C)n([C@H](C)C2CCN(CC(F)(F)CO)CC2)c2ccccc12 [Compound 175] | < 100 nM | 400 to 2000 nM | 
COc1cc(C)[nH]c(=O)c1CNC(=O)c1c(C)n([C@H](C)C2CCN(Cc3ccnc(C)c3)CC2)c2ccccc12 [Compound 246] | < 100 nM | < 400 nM | 
COc1cc(C)[nH]c(=O)c1CNC(=O)c1c(C)n([C@H](C)C2CCN(C(=O)C3CC3(F)F)CC2)c2ccccc12 (stereo partly drawn) [Compound 229] | < 100 nM | 400 to 2000 nM | 
COc1cc(C)[nH]c(=O)c1CNC(=O)c1c(C)n([C@H](C)C2CCN(Cc3cccnc3)CC2)c2ccccc12 [Compound 244] | < 100 nM | 400 to 2000 nM | 
COc1cc(C)[nH]c(=O)c1CNC(=O)c1c(C)n([C@H](C)C2CCN(S(=O)(=O)c3cccnc3)CC2)c2ccccc12 [Compound 258] | < 100 nM | 400 to 2000 nM | 
COc1cc(C)[nH]c(=O)c1CNC(=O)c1c(C)n([C@H](C)C2CCN(C(=O)C3(C)CC3)CC2)c2ccccc12 [Compound 190] | < 100 nM | 400 to 2000 nM | 
COc1cc(C)[nH]c(=O)c1CNC(=O)c1c(C)n([C@H](C)C2CCN(CC(C)(C)OC)CC2)c2ccccc12 [Compound 128] |  | < 400 nM | 
CCCC(=O)N1CCC([C@@H](C)n2c(C)c(C(=O)NCc3c(OC)cc(C)[nH]c3=O)c3ccccc32)CC1 [Compound 209] | < 100 nM | 400 to 2000 nM | 
COc1cc(C)[nH]c(=O)c1CNC(=O)c1c(C)n([C@H](C)C2CCN(Cc3ccn(C)n3)CC2)c2ccccc12 [Compound 255] | < 100 nM | > 2000 nM | 
COc1cc(C)[nH]c(=O)c1CNC(=O)c1c(C)n([C@H](C)C2CCN(C3CC3)CC2)c2ccccc12 [Compound 254] | < 100 nM | < 400 nM | 
CCC(F)(F)CN1CCC([C@@H](C)n2c(C)c(C(=O)NCc3c(OC)cc(C)[nH]c3=O)c3ccccc32)CC1 [Compound 108] | < 100 nM | < 400 nM | 
COc1cc(C)[nH]c(=O)c1CNC(=O)c1c(C)n([C@H](C)C2CCN(Cc3ccncc3F)CC2)c2ccccc12 [Compound 260] | < 100 nM | < 400 nM | 
CCS(=O)(=O)N1CCC([C@@H](C)n2c(C)c(C(=O)NCc3c(OCC(F)(F)F)cc(C)[nH]c3=O)c3ccccc32)CC1 [Compound 163] |  | 400 to 2000 nM | 
COc1cc(C)[nH]c(=O)c1CNC(=O)c1c(C)n([C@H](C)C2CCN(CC(C)=O)CC2)c2ccccc12 [Compound 169] |  |  | < 100 nM
